Test results published in US9637487B2, “Purinone compounds as kinase inhibitors” (Pharmacyclics LLC, priority 2013, dated 2017).

These compounds were tested against Btk (Homo sapiens (Human), UniProt Q06187) (assay: Btk in vitro inhibitory activity (one of Method A TR-FRET, Method B mobility shift, Method C radiometric filter binding)). Details: determined using one of the methods outlined in Example 36a, 36b and 36c.
Sequence of Btk (Q06187 whole entry): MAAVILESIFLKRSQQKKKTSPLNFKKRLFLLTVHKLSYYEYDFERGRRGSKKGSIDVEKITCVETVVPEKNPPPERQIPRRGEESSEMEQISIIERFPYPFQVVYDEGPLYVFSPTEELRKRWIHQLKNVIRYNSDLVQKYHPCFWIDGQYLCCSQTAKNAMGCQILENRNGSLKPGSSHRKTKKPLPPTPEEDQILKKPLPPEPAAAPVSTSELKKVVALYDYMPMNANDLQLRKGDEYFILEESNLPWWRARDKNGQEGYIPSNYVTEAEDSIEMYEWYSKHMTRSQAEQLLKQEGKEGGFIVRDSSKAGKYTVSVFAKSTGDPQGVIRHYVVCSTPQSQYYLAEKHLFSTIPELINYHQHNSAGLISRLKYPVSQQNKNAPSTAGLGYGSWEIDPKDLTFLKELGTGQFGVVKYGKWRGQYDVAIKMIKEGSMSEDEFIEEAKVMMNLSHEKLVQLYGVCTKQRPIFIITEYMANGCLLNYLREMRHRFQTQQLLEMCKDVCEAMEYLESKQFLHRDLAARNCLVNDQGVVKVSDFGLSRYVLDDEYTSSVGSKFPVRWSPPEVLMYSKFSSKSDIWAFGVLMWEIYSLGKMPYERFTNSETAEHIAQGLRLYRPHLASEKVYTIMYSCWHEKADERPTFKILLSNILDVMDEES
Assay type: biochemical
Procedure: Btk kinase activity is determined using a time-resolved fluorescence resonance energy transfer (TR-FRET) methodology. Measurements are performed in a reaction volume of 50 μL using 96-well assay plates. […] The reaction is quenched by the addition of 1.2 equivalents of EDTA (relative to divalent cation) in 25 μL of 1× Lance buffer (Perkin-Elmer). […] The TR-FRET signal is measured on a multimode plate reader with an excitation wavelength (λEx) of 330 nm and detection wavelengths (λEm) of 615 and 665 nm. Activity is determined by the ratio of the fluorescence at 665 nm to that at 615 nm. For each compound, enzyme activity is measured at various concentrations of compound. Negative control reactions are performed in the absence of inhibitor in replicates of six, and two no-enzyme controls are used to determine baseline fluorescence levels Inhibition constants, Ki(app), ware obtained using the program BatchKi (Kuzmic et al. (2000), Anal. Biochem. 286:45-50). IC50s are obtained according to the equation: IC50={Ki(app)/(1+[ATP]/Km^ATP)}+[E]total/2;
Kinase activity is measured in vitro using electrophoretic mobility shift assay. The kinase reactions are assembled in a total volume of 25 μL in 384 well plates. […] The reaction is incubated for one hour and is quenched by the addition of 45 μL of termination buffer (100 mM HEPES, pH7.5, 0.01% Triton X-100, 30 mM EDTA). The terminated reactions are analyzed using 12 channel LabChip® 3000 microfluidic detection instrument (Caliper Life Sciences). […] Change in the relative fluorescence intensity of the substrate and product peaks is the parameter measured, reflecting enzyme activity. In the presence of an inhibitor, the ratio between product and substrate is altered: the signal of the product decreases, while the signal of the substrate increases.
Activity in each sample is determined as the product to sum ratio (PSR):P/(S+P), where P is the peak height of the product peptide and S is the peak height of the substrate peptide. For each compound, enzyme activity is measured at various concentrations (12 concentrations of compound spaced by 3× dilution intervals). Negative control samples (0%-inhibition in the absence of inhibitor) and positive control samples (100%-inhibition, in the presence of 20 mM EDTA) are assembled in replicates of four and are used to calculate %-inhibition values for each inhibitor at each concentration. Percent inhibition (Pinh) is determined using following equation: Pinh=(PSR0%−PSRinh)/(PSR0%−PSR100%)*100, where PSRinh is the product sum ratio in the presence of inhibitor, PSR0% is the average product sum ration in the absence of inhibitor and PSR100% is the average product sum ratio in 100%-inhibition control samples;
The IC50 values of inhibitors are determined by 4 parameter sigmoidal dose-response model fitting of the inhibition curves (Pinh versus inhibitor concentration) using XLfit 4 software.
IC50 values and curve fits were obtained using Prism (GraphPad Software).
The degree of Btk inhibition was determined using one of the methods outlined in Example 36a, 36b and 36c.
Compound `CN(C(=O)/C=C/CN(C)C1CC1)c1cccc(-n2c(=O)n(-c3ccc(C(=O)c4ccccc4)cc3)c3c(N)ncnc32)c1` [Compound 27, (E)-N-(3-(6-amino-7-(4-benzoylphenyl)-8-oxo-7H-purin-9(8H)-yl)phenyl)-4-(cyclopropyl(methyl)amino)-N-methylbut-2-enamide] has an IC50 of less than 100 nM.
Work on `CN(C)C/C=C/C(=O)N(C)c1cccc(-n2c(=O)n(-c3ccc(OC4CC4)cc3)c3c(N)ncnc32)c1` [Compound 28, (E)-N-(3-(6-amino-7-(4-cyclopropoxyphenyl)-8-oxo-7H-purin-9(8H)-yl)phenyl)-4-(dimethylamino)-N-methylbut-2-enamide] yielded an IC50 of 100 to 1000 nM.
`C=CC(=O)N(C)c1cccc(-n2c(=O)n(-c3ccc(C(=O)Nc4ccccn4)cc3)c3c(N)ncnc32)c1` [Compound 29, 4-(6-amino-9-(3-(N-methylacrylamido)phenyl)-8-oxo-8,9-dihydro-7H-purin-7-yl)-N-(pyridin-2-yl)benzamide] showed an IC50 of less than 100 nM.
For `C=CC(=O)N(C)c1cccc(-n2c(=O)n(-c3ccc(OC4CC4)cc3)c3c(N)ncnc32)c1` [Compound 30, N-(3-(6-amino-7-(4-cyclopropoxyphenyl)-8-oxo-7H-purin-9(8H)-yl)phenyl)-N-methylacrylamide], the IC50 was less than 100 nM.
`CN(C(=O)CC#N)c1cccc(-n2c(=O)n(-c3ccc(Oc4ccccc4)cc3)c3c(N)ncnc32)c1` [Compound 33, N-(3-(6-amino-8-oxo-7-(4-phenoxyphenyl)-7H-purin-9(8H)-yl)phenyl)-2-cyano-N-methylacetamide] showed an IC50 of 100 to 1000 nM.
`CN(C(=O)C1(C#N)CC1)c1cccc(-n2c(=O)n(-c3ccc(Oc4ccccc4)cc3)c3c(N)ncnc32)c1` [Compound 34, N-(3-(6-amino-8-oxo-7-(4-phenoxyphenyl)-7H-purin-9(8H)-yl)phenyl)-1-cyano-N-methylcyclopropanecarboxamide] gave an IC50 of 100 to 1000 nM.
`CNC(=O)/C(C#N)=C/c1cccc(-n2c(=O)n(-c3ccc(Oc4ccccc4)cc3)c3c(N)ncnc32)c1` [Compound 44, (E)-3-(3-(6-amino-8-oxo-7-(4-phenoxyphenyl)-7H-purin-9(8H)-yl)phenyl)-2-cyano-N-methylacrylamide] showed an IC50 of less than 100 nM.
Compound `CN(C(=O)/C=C/CN(C)C1CC1)c1cccc(-n2c(=O)n(-c3ccc(Oc4ccccc4)nc3)c3c(N)ncnc32)c1` [Compound 49, (E)-N-(3-(6-amino-8-oxo-7-(6-phenoxypyridin-3-yl)-7H-purin-9(8H)-yl)phenyl)-4-(cyclopropyl(methyl)amino)-N-methylbut-2-enamide] has an IC50 of less than 100 nM.
For `CN(C(=O)/C=C/CN1CCOCC1)c1cccc(-n2c(=O)n(-c3ccc(Oc4ccccc4)cc3)c3c(N)ncnc32)c1` [Compound 51, (E)-N-(3-(6-amino-8-oxo-7-(4-phenoxyphenyl)-7H-purin-9(8H)-yl)phenyl)-N-methyl-4-morpholinobut-2-enamide], the IC50 was less than 100 nM.
Compound `CN(C(=O)/C=C/CN1CCCC1)c1cccc(-n2c(=O)n(-c3ccc(Oc4ccccc4)cc3)c3c(N)ncnc32)c1` [Compound 52, (E)-N-(3-(6-amino-8-oxo-7-(4-phenoxyphenyl)-7H-purin-9(8H)-yl)phenyl)-N-methyl-4-(pyrrolidin-1-yl)but-2-enamide] has an IC50 of less than 100 nM.
Work on `CN(C(=O)/C=C/CN(C)C1CC1)c1cccc(-n2c(=O)n(-c3ccc(Oc4ccccc4)cn3)c3c(N)ncnc32)c1` [Compound 58, (E)-N-(3-(6-amino-8-oxo-7-(5-phenoxypyridin-2-yl)-7H-purin-9(8H)-yl)phenyl)-4-(cyclopropyl(methyl)amino)-N-methylbut-2-enamide] yielded an IC50 of less than 100 nM.
`CN(C(=O)/C=C/CN(C)C1CC1)c1cccc(-n2c(=O)n(-c3ccc(Oc4ccccn4)cc3)c3c(N)ncnc32)c1` [Compound 63, (E)-N-(3-(6-amino-8-oxo-7-(4-(pyridin-2-yloxy)phenyl)-7H-purin-9(8H)-yl)phenyl)-4-(cyclopropyl(methyl)amino)-N-methylbut-2-enamide] showed an IC50 of less than 100 nM.
`CN(C(=O)/C=C/CN(C)C1CC1)c1cccc(-n2c(=O)n(-c3ncc(Oc4ccccc4)cn3)c3c(N)ncnc32)c1` [Compound 69, (E)-N-(3-(6-amino-8-oxo-7-(5-phenoxypyrimidin-2-yl)-7H-purin-9(8H)-yl)phenyl)-4-(cyclopropyl(methyl)amino)-N-methylbut-2-enamide] gave an IC50 of less than 100 nM.
